{
  "source": "patent US11833144B2",
  "about": "“Treating autoimmune disease” (Mayo Foundation for Medical Education and Research, priority 2020, dated 2023)",
  "key": {"murine B cells": {"system": "murine B cells", "assay": "Murine B cell proliferation (CellTrace Violet, cell number) and class switch to IgG1 in vitro", "type": "cell-based, mouse", "conditions": "for proliferation of mouse B cells (CTV dilution) / B cell proliferation, exogenous fatty acid alone / IgG1 class switch, exogenous fatty acid alone: LPS/IL-4 activated; for proliferation of mouse B cells (CTV dilution): SCD inhibitor alone; for rescue of proliferation and IgG1 class switch upon SSI-4 treatment: SSI-4 with exogenous fatty acid; for B cell proliferation, exogenous fatty acid alone / IgG1 class switch, exogenous fatty acid alone: fatty acid-BSA conjugate, no inhibitor", "method": "Mouse B cells were isolated from pooled single cell suspensions of spleen and peripheral lymph nodes using CD19 Microbeads (Miltenyi) or Mouse B cell Isolation Kit (Stemcell Technologies). B cells were stimulated with LPS (10 μg/mL; Sigma-Aldrich) and recombinant IL-4 cytokine (10 ng/mL; Tonbo Bioscience) with or without SCD inhibitor SSI-4, and proliferation was measured by dilution of CellTrace Violet proliferation dye (Thermo Fisher Scientific). B cells were also stimulated with anti-IgM (10 μg/mL; Jackson ImmunoResearch), anti-CD40 (10 μg/mL; BioXcell) and IL-4 (10 ng/mL; Tonbo Bioscience), or TLR ligand CpG (2.5 μM; IDT), recombinant IL-4 and IL-5 (10 ng/mL; Tonbo Bioscience) cytokines. To test the function of monounsaturated and saturated fatty acids, B cells were activated in presence of exogenous fatty acid-BSA conjugate. Palmitoleic acid (NU-CHEK PREP, INC), palmitic acid (NU-CHEK PREP, INC), stearic acid (NU-CHEK PREP, INC) were conjugated with fatty acid free BSA (Sigma-Aldrich) as described elsewhere (Wang et al., Immunity 35:871-882 (2011)). Human B cells were activated with CpG OND2006 (2.5 μM; IDT), recombinant human cytokine IL-10 ([…]; Peprotech), IL-15 (10 ng/mL; Peprotech), IL-4 (10 ng/mL; Biolegend), IL-2 (10 unit/mL) and anti-human CD40 (1 μg/mL; BioXcell). Human B cell proliferation was measured by ^3[H]-thymidine incorporation (1 μCi/mL) (American Radiolabeled Chemicals). For analysis of surface markers, cells were stained in PBS containing 1% (w/v) bovine serum albumin on ice for 30 minutes, with anti-IgG1 (RMG1-1, Biolegend), anti-CD19 (ID3, Biolegend) anti-B220 (RA3-6B2, Biolegend), anti-CD4 (GK1.5, Biolegend), anti-CD8 (53-6.7, Biolegend), anti-CD25 (PC16, Biolegend), anti-GL7 (GL-7, Biolegend), anti-CD95 (Jo2, BD Biosciences), anti-CD138 (281-2, Biolegend), anti-IgD (11-26c.2a, Biolegend), anti-PD-1 (J43, ThermoFisher), anti-IgM (II/41, ThermoFisher). Antigen specific GC response was detected with tetramer NP-phycoerythrin conjugated with PE (Biosearch Technologies). CXCR5 was stained with biotinylated anti-CXCR5 (2G8) followed by staining with streptavidin-conjugated PE (both from BD Biosciences). Cell viability was assessed using the Fixable Dye Ghost 510 (Tonbo Bioscience) or Annexin V cell apoptosis kit with 7-AAD (ThermoFisher) following the manufacturer's protocol. Phosflow staining for phospho-S6 (S235/236) was performed using Phosflow Fix/Perm kit (BD Biosciences). Mitochondrial potential was measured by staining with 20 nM TMRM (ThermoFisher) following manufacturer's instructions. Flow cytometry was performed on the LSR II, LSR Fortessa (BD Biosciences) or Attune NxT (ThermoFisher) cytometers, and analysis was performed using FlowJo software (Tree Star)."}, "activated murine B cells": {"system": "activated murine B cells", "assay": "Seahorse OCR / ECAR in activated murine B cells", "type": "cell-based, mouse", "conditions": "exogenous fatty acid, 48 h", "method": "(§1) The bioenergetic activities of the OCR and ECAR were measured using a Seahorse XFe96 Extracellular Flux Analyzed following established protocols (Agilent). Briefly, B cells were seeded at 200,000 cells/well on Cell-Tak (Corning) coated XFe96 plate with fresh XF media (Seahorse XF RPMI medium containing 10 mM glucose, 2 mM L-glutamine, and 1 mM sodium pyruvate, PH 7.4; all reagents from Agilent). OCR was measured in the presence of Oligomycin (1.5 μM; Sigma-Aldrich), FCCP (1.5 μM; Sigma-Aldrich), and Rotenone (1 μM; Sigma-Aldrich)/Antimycin A (1 μM; Sigma-Aldrich) in Mito Stress assay. For ECAR measurement, B cells were seeded in XFe96 plate with fresh Seahorse XF RPMI medium with 2 mM L-glutamine (PH 7.4), and treated with glucose (10 mM; Agilent), Oligomycin (1.5 and 2-DG (50 mM; Sigma-Aldrich) orderly in Glycolysis Stress assay."}, "activated human B cells": {"system": "activated human B cells", "assay": "Seahorse OCR / ECAR in activated human B cells", "type": "cell-based", "conditions": "exogenous fatty acid, 72 hours", "method": "as §1"}},
  "data": [
    {"smiles": "Cc1nnc(-c2ccc(N3CCC(Oc4ccccc4C(F)(F)F)CC3)nn2)s1", "note": "[MF438, reference compound]", "values": [
      {"measurement": "proliferation of mouse B cells (CTV dilution)", "setting": "murine B cells", "result": "capable of inhibiting B cell proliferation"}
    ]},
    {"smiles": "CCOC(=O)[C@@]1(CCCCCCOc2ccc(Cl)cc2)CO1", "note": "[etomoxir, reference compound]", "values": [
      {"measurement": "effect of OA treatment on class switch in presence of etomoxir", "setting": "murine B cells; OA plus etomoxir 40 μM, 72 hours", "result": "negated the effects of OA treatment"},
      {"measurement": "B cell class switch to IgG1", "setting": "murine B cells; etomoxir 40 μM, LPS/IL-4, 72 hours", "result": "reduced B cell class switch"}
    ]},
    {"smiles": "CCCCCCCCCCCCCCCC(=O)O", "note": "[PA, palmitic acid]", "values": [
      {"measurement": "rescue of proliferation and IgG1 class switch upon SSI-4 treatment", "setting": "murine B cells; LPS/IL-4", "result": "no rescue effects"},
      {"measurement": "B cell proliferation, exogenous fatty acid alone", "setting": "murine B cells", "result": "unable to promote"},
      {"measurement": "IgG1 class switch, exogenous fatty acid alone", "setting": "murine B cells", "result": "unable to promote"}
    ]},
    {"smiles": "CCCCCCCCCCCCCCCCCC(=O)O", "note": "[SA, stearic acid]", "values": [
      {"measurement": "rescue of proliferation and IgG1 class switch upon SSI-4 treatment", "setting": "murine B cells; LPS/IL-4", "result": "no rescue effects"},
      {"measurement": "B cell proliferation, exogenous fatty acid alone", "setting": "murine B cells", "result": "unable to promote"},
      {"measurement": "IgG1 class switch, exogenous fatty acid alone", "setting": "murine B cells", "result": "unable to promote"}
    ]},
    {"smiles": "CNC(=O)c1cccc(NC(=O)N2CCC(Oc3ccccc3Cl)CC2)c1", "note": "[A939572, reference compound]", "values": [
      {"measurement": "proliferation of mouse B cells (CTV dilution)", "setting": "murine B cells", "result": "capable of inhibiting B cell proliferation"}
    ]},
    {"smiles": "Cn1cnc(N)c2ncnc1-2", "note": "[3-MA, 3-methyladenine, reference compound]", "values": [
      {"measurement": "rescue of B cell proliferation and class switch to IgG1 in the presence of SSI-4", "setting": "murine B cells; 3-MA 1 mM, wortmannin 1 μM", "result": "successfully rescued"}
    ]},
    {"smiles": "CCCCCC/C=C\\CCCCCCCC(=O)O", "note": "[PO, palmitoleic acid]", "values": [
      {"measurement": "rescue of proliferation and IgG1 class switch in SCD1/2 deficient B cells", "setting": "murine B cells; B cells from Scd1 and Scd2 deficient mice, LPS/IL-4", "result": "partial rescue effect"},
      {"measurement": "rescue of proliferation and IgG1 class switch upon SSI-4 treatment", "setting": "murine B cells; LPS/IL-4", "result": "substantial, but incomplete, rescue effects"},
      {"measurement": "IgG1 class switch, exogenous fatty acid alone", "setting": "murine B cells", "result": "did not improve class switch"},
      {"measurement": "OCR upon LPS/IL-4 stimulation in mouse B cells", "setting": "activated murine B cells", "result": "did enhance OCR"},
      {"measurement": "B cell respiration (OCR)", "setting": "activated murine B cells; CpG/IL-4/IL-5 (PO: CpG and anti-IgM/anti-CD40) stimulation", "result": "did not promote respiration"},
      {"measurement": "respiration (OCR) in activated human B cells", "setting": "activated human B cells", "result": "did enhance OCR"}
    ]}
  ]
}
